According to article PMC3269340, “Pharmacokinetics of memantine in rats and mice” (PLoS Currents, 2012):
Where two headings read alike, the source gives them in different places.

Columns and labels:
[1] = Stability in human liver microsomes; assay type: in vitro ADME; conditions: 0.5 mg/mL pooled male microsomes, read-out: Intrinsic Clearance (Cl int) Liver Microsomes
Protocol: (§1) Memantine (1 μM) was incubated in 0.5 mg/mL of pooled male rat, mouse, or human liver microsomes (obtained commercially), in 0.1 M phosphate buffer at 37 °C. After pre-warming the mixture for 5 min, reactions were initiated by the addition of NADPH (1 mM). Aliquots (80 μL) were taken at 0, 5, 10, 20 and 40 min, and the reaction immediately terminated by adding into 80 μL of acetonitrile containing an analytical internal standard (IS). Samples were centrifuged and the supernatant fractions analyzed by LC-MS/MS with multiple reaction monitoring (MRM). All incubations were performed in duplicate. Testosterone was used as the positive control. The MRM area response ratio of the analyte over IS for Time=0(control) was set to 100%, the relative decrease in MRM area ratio intensity over time against that of the control (percent parent decrease) was used to determine the half-life (t1/2) of memantine in the incubation. Half-life values were calculated from the relationship:
(§2) t1/2 (min) = -0.693/λ, where λ is the slope of the Ln concentration vs time curve. The intrinsic clearance (Clint) was calculated as:
(§3) Clint = (0.693 x incubation volume (μL))/(t½ (min) x mg of microsomal protein)

[2] = Stability in rat liver microsomes; assay type: in vitro ADME; conditions: 0.5 mg/mL pooled male microsomes, read-out: Intrinsic Clearance (Cl int) Liver Microsomes
Protocol: as §1, §2, §3

human PEPT1 = target: T1, human PEPT1 (Homo sapiens, UniProt P46059); assay: Direct uptake transporter assay, PEPT1; assay type: in vitro ADME; conditions: for Accumulation in transporter transfected cells: PEPT1-transfected cells; for Accumulation in parental cells: parental CHO cells (PEPT1 line)
T1 sequence (P46059 1-708): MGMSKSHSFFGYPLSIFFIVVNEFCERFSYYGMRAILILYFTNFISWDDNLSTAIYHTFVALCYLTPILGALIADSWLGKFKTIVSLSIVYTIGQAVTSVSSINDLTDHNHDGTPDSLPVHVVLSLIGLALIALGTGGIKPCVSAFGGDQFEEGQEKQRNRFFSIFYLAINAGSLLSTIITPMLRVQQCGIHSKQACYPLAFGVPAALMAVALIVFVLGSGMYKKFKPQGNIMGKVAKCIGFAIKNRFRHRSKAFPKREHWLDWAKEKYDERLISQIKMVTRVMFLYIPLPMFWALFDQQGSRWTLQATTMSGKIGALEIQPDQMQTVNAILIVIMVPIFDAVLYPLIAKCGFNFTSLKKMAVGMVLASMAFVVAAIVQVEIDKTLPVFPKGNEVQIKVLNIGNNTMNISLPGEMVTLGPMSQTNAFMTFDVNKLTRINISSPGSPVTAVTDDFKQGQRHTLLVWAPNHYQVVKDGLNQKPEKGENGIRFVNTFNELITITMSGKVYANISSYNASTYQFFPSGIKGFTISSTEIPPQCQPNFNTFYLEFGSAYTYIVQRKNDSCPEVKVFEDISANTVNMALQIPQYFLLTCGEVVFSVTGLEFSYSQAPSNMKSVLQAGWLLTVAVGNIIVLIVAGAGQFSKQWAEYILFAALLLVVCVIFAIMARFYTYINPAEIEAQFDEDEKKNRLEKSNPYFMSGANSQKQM
Protocol: To determine whether memantine is a substrate of the human OATP2B1 (OATP-B), OCT1, OCT2, OAT3, PEPT1, PEPT2 uptake transporters.
The potential for memantine to be a substrate of an uptake transporter was determined directly by comparing the uptake of memantine into cells expressing the selected uptake transporter with its uptake into control cells. Memantine was added to transporter-expressing and control cells at two concentrations (PEPT1 and PEPT2 100 and 300 µM, OCT1 and OCT2 50 and 100 µM, OATP2B1 100 and 300 µM), and incubated with cells for 2 and 20 min at 37±1°C (75 µL final incubation volume). The final concentrations of memantine were selected to be the IC50 of reporter substrate transport inhibition established in the indirect transporter assay and one order of magnitude lower. Incubations were carried out as described in the indirect uptake transporter assays. The concentration of memantine was determined by LC-MS/MS.

[3] = cited from earlier work

CC12CC3CC(C)(C1)CC(N)(C3)C2 [memantine]
microsomal CLint at 1 μM [1]: < 13.9 µL/min/mg | microsomal CLint at 1 μM [2]: 50.4 µL/min/mg | Highest Fold Activation (human PEPT1; PEPT1, 100µM, 20 min): 1.1 (100µM, 20 min) | Accumulation in transporter transfected cells (human PEPT1; 2 min, 100 µM): 1073 pmol/mg | Accumulation in transporter transfected cells (human PEPT1; 2 min, 300 µM): 2290 pmol/mg | Accumulation in transporter transfected cells (human PEPT1; 20 min, 100 µM): 1087 pmol/mg | Accumulation in transporter transfected cells (human PEPT1; 20 min, 300 µM): 1682 pmol/mg | substrate of PEPT1 uptake transporter (human PEPT1; no preferential accumulation in transfected over parental cells): not a substrate | Accumulation in parental cells (human PEPT1; 2 min, 100 µM): 969 pmol/mg | Accumulation in parental cells (human PEPT1; 2 min, 300 µM): 2389 pmol/mg | Accumulation in parental cells (human PEPT1; 20 min, 100 µM): 981 pmol/mg | Accumulation in parental cells (human PEPT1; 20 min, 300 µM): 1614 pmol/mg | Cmax ([3]; human plasma/serum, 10 mg twice daily po, normal renal clearance): 0.0835 µg/mL | Cmax ([3]; human plasma/serum, 10 mg twice daily, read-out: Cmax): 0.47 µM | Cmax ([3]; human, 10 mg BID po, read-out: Cmax): 0.47 µM | C min ([3]; human, 10 mg BID): 0.3 µM | Cmax/Cmin ratio at steady state ([3]; human, 10 mg BID): 1.54 | renal clearance as share of total systemic clearance ([3]; human, acidic conditions): 92% | renal clearance as share of total systemic clearance ([3]; human, alkaline conditions): 60-67% | Total plasma clearance (Clp) ([3]; human, normal renal function): 182 mL/min | renal clearance (Clr) ([3]; human, normal renal function): 164 mL/min | share of total plasma clearance accounted for by renal clearance ([3]; human, normal renal function): 90% | Tmax ([3]; human, po): 4 to 6 h | dose eliminated as intact memantine in the urine ([3]; human): 75-90% | elimination half-life ([3]; human): 60 to 80 h | volume of distribution at steady state (Vdss) ([3]; human): 9 to 11 L/kg
